In patent US20210260055A1, “TOPICAL FORMULATIONS OF DGAT1 INHIBITORS AND THEIR METHODS OF USE” (Dermavant Sciences GmbH, priority 2018, published 2021):
Read-outs that look alike come from different tables or passages of the source.

Key:
[1] = tested on: Human immortalized sebocytes; assay: Cleaved Caspase 3 Assay; format: cell-based; conditions: for cleaved caspase 3: any concentration, 2, 3 and 5 day treatment; for sebocyte apoptosis: conditions of this in vitro assay
Experimental: This assay examines the ability of compounds to induce apoptosis by measuring Caspase 3 generated by proteolytic processing. Cells were seeded in tissue culture treated clear bottom plates. Compounds were added in the presence of Liver X Receptor (LXR) agonist (T0901317) and 1 μM insulin for 2, 3 and 5 days. For the 5 day treatment fresh compounds were added at Day 3. After the treatment period lysates were prepared according to the manufacturer's instructions and frozen at −80° C. until the day of the assay.
Protocol—Day 1: Human immortalized sebocytes were seeded at 10,000 cells/well in 96-well, clear bottom plates in Sebocyte Growth Medium and allowed to attach overnight at 37° C. Day 2: Medium was refreshed by removing seeding medium and adding fresh Sebocyte Growth Medium. Cells were maintained at 37° C. to allow degradation of the temperature sensitive SV40 large T antigen. Day 4: 1000× stocks (in DMSO) of each compound were prepared (3 mM and 100 μM) and were diluted 1:1000 in Sebocyte Treatment Media containing 1 μM T0901317 and 1 μM Insulin to give a final top concentration of 3000 nM and 100 nM for further 10-fold dilutions in the same medium according to the plate map below. The cell medium was removed and replaced with Sebocyte Treatment Medium containing 1 μM T0901317, 1 μM Insulin, compound dilution, or vehicle (DMSO) as per plate maps for a 2, 3 and 5 day treatment. For untreated controls, media was removed and replaced with Sebocyte Treatment Media only (no T091317 or Insulin). For the 5 day treatment cells were retreated as described above on Day 7. Day 6, 7 or Day 9: 1) After treatment, the plate was centrifuged at 300×g for 10 minutes. 2) After centrifugation, the medium was removed the cells rinsed with ice-cold PBS and then centrifuged again at 300×g for 10 minutes. 3) After centrifugation the PBS was removed and replaced with 30 μl/well and left on ice for 5 minutes. 4) After 5 minutes, the lysates were frozen at −80° C. until the day of the assay. Day of Assay: Buffers and reagents were prepared according to the manufacturer's instructions. 1) 25 μl of lysate was added to the corresponding well of a 96 well black clear bottom plates. 2) 200 μl of the prepared substrate solution B was added to each well. 3) After 1 hr incubation in the dark, the relative fluorescence was determined using the following settings: 380ex/420em.
Data analysis—IC50s were determined for each test sample by using appropriate curve fits in GraphPad Prism (v.7). […]

[2] = Toxicokinetic assessment of systemic exposure in minipigs following dermal administration; format: in vivo; conditions: Göttingen, minipig, plasma, topical or ocular; for AUC(0-t): read-out: AUC0-24; for Tmax: Median (Min-Max)
Experimental: Male and female göttingen minipigs were dosed daily for a period of 28 days in a GLP toxicity study with DMVT-503 gel at 0.1%, 0.3%, and 0.6%. DMVT-503 concentrations were quantitated using a validated LC-MS/MS method and toxicokinetic parameters were calculated for all dosing groups, sexes, and sampling occasions. The systemic exposures observed in this study are supportive of the effective delivery of DMVT-503 into and through minipig skin by the gel formulations tested. Table 10 presents the summary as mean±SD on Days 1 and 28 following daily dermal application of DMVT-503 gel formulations at 0.1%, 0.3%, and 0.6% (2, 6, and 12 mg/kg/day, respectively).

[3] = female, 2 mg/kg/day, Day 1, Female, 2 mg/kg/day, 0.1% gel
[4] = female, 2 mg/kg/day, Day 28, Female, 2 mg/kg/day, 0.1% gel
[5] = female, 6 mg/kg/day, Day 1, Female, 6 mg/kg/day, 0.3% gel
[6] = female, 6 mg/kg/day, Day 28, Female, 6 mg/kg/day, 0.3% gel
[7] = female, 12 mg/kg/day, Day 1, Female, 12 mg/kg/day, 0.6% gel
[8] = female, 12 mg/kg/day, Day 28, Female, 12 mg/kg/day, 0.6% gel
[9] = male, 2 mg/kg/day, Day 1, Male, 2 mg/kg/day, 0.1% gel
[10] = male, 2 mg/kg/day, Day 28, Male, 2 mg/kg/day, 0.1% gel
[11] = male, 6 mg/kg/day, Day 1, Male, 6 mg/kg/day, 0.3% gel
[12] = male, 6 mg/kg/day, Day 28, Male, 6 mg/kg/day, 0.3% gel
[13] = male, 12 mg/kg/day, Day 1, Male, 12 mg/kg/day, 0.6% gel
[14] = male, 12 mg/kg/day, Day 28, Male, 12 mg/kg/day, 0.6% gel

With `Cc1nc(C)c(-c2ccc([C@H]3CC[C@H](CC(=O)O)CC3)cc2)nc1C(N)=O` [DMVT-503, 2-((1R,4R)-4-(4-(6-carbamoyl-3,5-dimethylpyrazin-2-yl)phenyl)cyclohexyl)acetic acid] the “cleaved caspase 3” value [1] was “No significant cleaved caspase 3 detected”, the sebocyte apoptosis [1] was “did not induce sebocyte apoptosis” and the Cmax [2, 3] was 37.3 ng/mL. For the same molecule, the AUC(0-t) [2, 3] was 323 ng·h/mL, the Cmax [2, 4] was 193 ng/mL and the AUC(0-t) [2, 4] was 3940 ng·h/mL. It also gave a Tmax [2, 3] of 24 h, a Tmax [2, 4] of 1 h and a Cmax [2, 5] of 210 ng/mL. The AUC(0-t) [2, 5] was 1750 ng·h/mL, the Cmax [2, 6] was 487 ng/mL and the AUC(0-t) [2, 6] was 8660 ng·h/mL. For the same molecule, the Tmax [2, 5] was 24 h, the Tmax [2, 6] was 0 h and the Cmax [2, 7] was 171 ng/mL. The AUC(0-t) [2, 7] was 1490 ng·h/mL, the Cmax [2, 8] was 1370 ng/mL and the AUC(0-t) [2, 8] was 25400 ng·h/mL. The Tmax [2, 7] was 24 h, the Tmax [2, 8] was 0 h and the Cmax [2, 9] was 35.1 ng/mL. It also gave an AUC(0-t) [2, 9] of 307 ng·h/mL, a Cmax [2, 10] of 19.6 ng/mL and an AUC(0-t) [2, 10] of 3970 ng·h/mL. It also gave a Tmax [2, 9] of 24 h, a Tmax [2, 10] of 0 h and a Cmax [2, 11] of 53 ng/mL. It also gave an AUC(0-t) [2, 11] of 478 ng·h/mL, a Cmax [2, 12] of 940 ng/mL and an AUC(0-t) [2, 12] of 17500 ng·h/mL. It also gave a Tmax [2, 11] of 24 h, a Tmax [2, 12] of 2 h and a Cmax [2, 13] of 103 ng/mL. It also gave an AUC(0-t) [2, 13] of 10500 ng·h/mL, a Cmax [2, 14] of 1160 ng/mL and an AUC(0-t) [2, 14] of 22300 ng·h/mL. For the same molecule, the Tmax [2, 13] was 24 h and the Tmax [2, 14] was 1 h.

In the case of `CC1=C(/C=C/C(C)=C/C=C/C(C)=C\C(=O)O)C(C)(C)CCC1` [Mix 13-cis-RA, 13-cis-retinoic Acid, reference compound], the “cleaved caspase 3” value [1] is reported as “No significant cleaved caspase 3 detected” and the sebocyte apoptosis [1] is reported as “did not induce sebocyte apoptosis”.
